# Assay results published in paper PMC9733664 (Blood cells, molecules & diseases, 2021).
# Tests used:
# [1] = system: HDACs 1-9, and 11; experiment: In vitro HDAC inhibition assay, profile over all isoforms tested; details: heat map Fig. 1A
# [2] = system: HbF and HbS protein in SCD erythroid progenitors; experiment: Western blot for HbF and HbS protein in sickle erythroid progenitors; assay type: cell-based, human
# [3] = system: acH3 and RNA PolII at γ-globin promoter, β-globin promoter, LCR-HS2; assay type: cell-based, human; details: for RNA PolII and acH3 chromatin enrichment in the LCR-HS2: Fig. 5E
# [4] = system: acetylated histone H3 (acH3); experiment: Western blot for nuclear acetylated histone H3 in sickle erythroid progenitors; assay type: cell-based, human
# [5] = system: γ-globin and β-globin mRNA in SCD erythroid progenitors; experiment: Globin mRNA in sickle erythroid progenitors; assay type: cell-based, human; details: for increase in γ-globin mRNA: day 7 to day 12, n = 6 SCD subjects, vs vehicle
# [6] = system: Class I HDAC (HDAC 1-3); experiment: In vitro HDAC inhibition assay; assay type: biochemical
# [7] = system: HbF in SCD erythroid progenitors; experiment: Flow cytometry for F-cells and HbF MFI in sickle erythroid progenitors; assay type: cell-based, human; details: for mean F-cells: vehicle 5.8%
# [8] = system: SCD erythroid progenitors; experiment: Erythroid maturation and growth of sickle erythroid progenitors; assay type: cell-based, human; details: 5 days of treatment (day 12)
# [9] = target: T1, HDAC6 (Homo sapiens, UniProt Q9UBN7); experiment: In vitro HDAC inhibition assay; assay type: biochemical; details: 10-dose IC50 mode
# T1 sequence (Q9UBN7 1-1215): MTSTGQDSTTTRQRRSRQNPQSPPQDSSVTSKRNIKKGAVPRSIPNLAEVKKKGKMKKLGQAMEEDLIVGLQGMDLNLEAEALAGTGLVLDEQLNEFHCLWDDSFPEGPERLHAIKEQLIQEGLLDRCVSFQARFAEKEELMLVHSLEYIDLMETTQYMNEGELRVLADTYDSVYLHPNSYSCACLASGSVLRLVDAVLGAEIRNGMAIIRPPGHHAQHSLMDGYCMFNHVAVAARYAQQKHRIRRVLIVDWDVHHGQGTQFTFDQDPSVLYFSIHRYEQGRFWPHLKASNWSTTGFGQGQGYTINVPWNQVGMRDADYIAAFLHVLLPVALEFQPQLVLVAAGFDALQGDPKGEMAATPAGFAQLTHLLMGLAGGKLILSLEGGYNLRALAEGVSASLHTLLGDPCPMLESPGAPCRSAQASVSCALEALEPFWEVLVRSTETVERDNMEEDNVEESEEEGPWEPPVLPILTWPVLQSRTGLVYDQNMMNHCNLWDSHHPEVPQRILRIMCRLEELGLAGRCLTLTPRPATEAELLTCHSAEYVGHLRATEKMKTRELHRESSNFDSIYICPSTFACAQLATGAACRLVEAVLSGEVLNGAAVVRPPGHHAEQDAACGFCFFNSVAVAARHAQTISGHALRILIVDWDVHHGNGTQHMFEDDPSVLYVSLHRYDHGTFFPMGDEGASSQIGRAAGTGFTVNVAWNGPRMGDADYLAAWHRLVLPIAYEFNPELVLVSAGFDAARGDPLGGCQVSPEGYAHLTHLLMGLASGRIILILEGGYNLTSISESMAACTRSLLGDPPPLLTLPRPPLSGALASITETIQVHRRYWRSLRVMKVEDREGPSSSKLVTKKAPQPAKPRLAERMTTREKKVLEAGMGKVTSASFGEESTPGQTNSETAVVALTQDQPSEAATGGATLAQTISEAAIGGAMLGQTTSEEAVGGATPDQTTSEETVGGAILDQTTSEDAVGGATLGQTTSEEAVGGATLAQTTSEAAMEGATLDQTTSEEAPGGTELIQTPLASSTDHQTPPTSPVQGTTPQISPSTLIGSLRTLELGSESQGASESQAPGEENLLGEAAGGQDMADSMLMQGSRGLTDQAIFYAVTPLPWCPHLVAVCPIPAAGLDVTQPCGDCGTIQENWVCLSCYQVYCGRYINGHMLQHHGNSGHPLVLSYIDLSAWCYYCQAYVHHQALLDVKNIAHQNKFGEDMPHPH
# [10] = system: Class IIa and Class IV HDAC isoforms; experiment: In vitro HDAC inhibition assay; assay type: biochemical; details: 10-dose IC50 mode
# [11] = system: γ-globin mRNA in K562 cells; experiment: γ-globin mRNA induction in K562 cells; assay type: cell-based, human; details: 48 h, CT108 3 μM, CT-101 5 μM, ST-20 20 μM, valproic acid 1 mM and 2 mM, vs control
# [12] = system: K562 cells; experiment: Cell growth/proliferation of K562 cells; assay type: cell-based, human; details: over the concentration range tested
# [13] = nine SCD subjects, 10 mg per day, 3 days per week; ref NCT01245179; cited from earlier work
# [14] = system: HbF; details: three patients with Hodgkin's lymphoma, 3 months of therapy; cited from earlier work
# [15] = system: HbF; details: SCD patients, intravenous; cited from earlier work
smiles,measurement,setting,value
O=C(/C=C/c1cccc(S(=O)(=O)Nc2ccccc2)c1)NO [belinostat],HDAC isoform inhibition profile / selectivity,[1],inhibited most HDAC isoforms to some degree
"NC(=O)NO [HU, hydroxyurea, reference compound]",HbF level increase by Western blot,"[2]; HU 75 μM, vs untreated control",1.3 fold
"CCCC(=O)[O-].[Na+] [sodium butyrate, reference compound]",RNA PolII and acH3 chromatin enrichment in the LCR-HS2,[3],increased
same,increase in acH3 level,[4]; sodium butyrate,3 fold
same,decrease of β-globin mRNA level,"[5]; sodium butyrate 0.2 μM, day 7 to day 12",80%
same,HbF level increase by Western blot,"[2]; sodium butyrate 0.2 μM, vs untreated control",1.4 fold
CCCCCCCC(=O)SCC/C=C/[C@@H]1CC(=O)NCc2nc(cs2)C2=N[C@@](C)(CS2)C(=O)N[C@@H](C(C)C)C(=O)N1 [CT-101],IC50,"[6]; read-out: IC50 as Class I HDACi, lowest level over Class I isoforms",≥ 4 nM
same,IC50 for HDAC 1-3,"[6]; singlet 10-dose IC50 mode, 3-fold serial dilution, active free thiol form tested",nanomolar concentrations
same,mean F-cells,"[7]; 100 nM, p < 0.01",8.1%
same,mean F-cells,"[7]; 200 nM, p < 0.001",7.4%
same,mean increase in the proportion of F-cells,"[7]; vs DMSO vehicle controls, same subject",30%
same,decrease in number of orthochromatic erythroid cells,[8]; 100 nM,42%
same,decrease in number of orthochromatic erythroid cells,[8]; 200 nM,56%
same,acH3 chromatin enrichment in the γ-globin promoter,"[3]; CT-101 100 mM and 200 nM, 48 h",3.8 fold
same,RNA PolII and acH3 chromatin enrichment in the LCR-HS2,[3],increased
same,RNA PolII and acH3 chromatin enrichment in the β^s-globin proximal promoter,[3]; vs vehicle treated cells,not changed
same,inhibition of HDAC6,[9],Some inhibition
same,inhibition of Class IIa and Class IV isoforms,[10],little to no inhibition
same,γ-globin mRNA / HbF expression induction,[11],11 fold
same,cell proliferation,[12],did not inhibit cell proliferation
same,increase in acH3 level,"[4]; 100 nM, n = 6",1.8 fold
same,increase in acH3 level,"[4]; 200 nM, n = 6",2.0 fold
same,increase in γ-globin mRNA,[5]; 100 nM,3.9 fold
same,increase in γ-globin mRNA,[5]; 200 nM,7 fold
same,β-globin transcription,[5]; sickle erythroid progenitors,did not alter
same,HbF level increase by Western blot,"[2]; 200 nM, vs untreated control progenitors, p < 0.01",up to 1.7 fold
same,HbS protein level,"[2]; Western blot, Fig. 3C",not significantly changed
Cc1[nH]c2ccccc2c1CCNCc1ccc(/C=C/C(=O)NO)cc1 [panobinostat],tolerability,[13],without dose limiting or serious adverse effects
same,HDAC isoform inhibition profile / selectivity,[1],inhibited most HDAC isoforms to some degree
same,increase in HbF,[14],2 fold
CCCC(=O)O.CCCC(=O)O.CCCC(=O)O.CCCC(=O)O.N=C(N)NCCC[C@H](N)C(=O)O.N=C(N)NCCC[C@H](N)C(=O)O.N=C(N)NCCC[C@H](N)C(=O)O [arginine butyrate],enhancement of HbF levels,[15],3 fold
